Results published in patent US6107273A, “Tumor necrosis factor inhibitors” (Thomas Jefferson University, priority 1995, dated 2000).
Where “and” joins values, the source holds several entries; their conditions need not be identical. Equal values may be shown once. Square brackets hold non-standard residues; d marks the D form. Ends that are not written are not given here. Pen = CC(C)(S)[C@H](N)C(=O)O; Aib = CC(C)(N)C(=O)O

Tested on: WEHI 164 cells
Assay: In vitro cytotoxicity assay: protection of WEHI 164 cells from TNF-α cytotoxicity (AlamarBlue)
Format: cell-based, mouse
Experimental: In vitro cytotoxicity assay Cell line
The murine fibrosarcoma cell line L929 is widely used for testing TNF-α cytotoxicity in vitro. In addition, other cell lines are available that are more sensitive, such as the WEHI 164, a mouse myosarcoma cell line. Both cell lines were initially screened for use in the following experiments and WEHI 164 cells were chosen for their higher sensitivity.
Cells are maintained in serum free medium Ultraculture (Biowhittaker) with the addition of 2 mM Glutamine. The assay is carried out in the same serum free medium.
In the cytotoxicity assay, a susceptible cell line (WEHI 164) is incubated in medium containing serial dilutions of TNF-α for a set time and the consequent cytotoxic activity, manifested as inhibition of cell growth and/or cell death, is evaluated by spectrophotometer measurements of vital dye uptake.
Peptide stock solutions are made in HBSS at the concentration of 1 mg/ml, sterilized by passage through a 0.20 μm×13 mm cellulose acetate filters (Corning). The solutions were used for no longer than 10 days. All the other dilutions needed for the test were prepared just before the assay in sterile manner using the medium Ultraculture.
WEHI 164 cells are taken from logarithmic growth and seeded in 96 well microtiter plates at the density of 2500 cells/well. The assay is performed 48 hours later, at a cell density of approximately 3000 cells/well. Cells are pre-incubated with serial dilutions of peptides for 30 minutes, then TNF-α is added to the wells and incubated for 16 hours at 37° C. Samples are repeated in triplicate.
Control wells for non treated cells contain medium only. A concentration curve of TNF-α is performed for every assay at concentrations ranging between 200 and 1 ng/ml. A control for full protection from TNF-α cytotoxicity is carried out by pre-incubating TNF-α with A2 antibody (Centocor, Malvern Pa.) for 30 minutes then adding it to the cells.
After 16 hour incubation, the vital dye AlamarBlue (Alamar Biosciences) is added in the amount equal to 10% final volume. The plates are returned to the incubator for 6-10 hours.
Absorbance is evaluated at 570 nm, subtracting the background absorbance measured at 595 nm in a BioRad microtiter plate reader.
Values are expressed as a percentage of cell survival, where the control samples (containing medium only) are referred to as 100%.

[1] = 50 μg/ml peptide, TNF 25 ng/ml, 16 h
[2] = 100 μg/ml peptide, TNF 25 ng/ml, 16 h
[3] = 25 μg/ml peptide, TNF 25 ng/ml, 16 h
[4] = 2.5 μg/ml peptide, TNF 5 ng/ml, 16 h
[5] = 25 μg/ml peptide, TNF 5 ng/ml, 16 h
[6] = 50 μg/ml peptide, TNF 25 pg/ml, 16 h
[7] = 100 μg/ml peptide, TNF 25 pg/ml, 16 h

CIAVSYQTKC (cysteine pairing not given here) [Peptide 558]
% cell survival [1]: 24 ± 8% | % cell survival [2]: 26 ± 7%

[Pen]E[Aib]E[Pen] (cysteine pairing not given here) [Peptide 556]
% cell survival [3]: 69 ± 18% | % cell survival [1]: 71 ± 14%

CSYQTKC (cysteine pairing not given here) [Peptide 522]
% cell survival [4]: 81% | % cell survival [5]: 111%

CRRANA[dC] (cysteine pairing not given here) [Peptide 512]
% cell survival [6]: 70.8 ± 6% | % cell survival [7]: 65.6 ± 8%

CPQAEGQLC (cysteine pairing not given here) [Peptide 510]
% cell survival [6]: 59.3 ± 1% | % cell survival [7]: 60.4 ± 3%

CSYQTKVC (cysteine pairing not given here) [Peptide 521]
% cell survival [6]: 56.51 ± 3% | % cell survival [7]: 65.26 ± 4%

CPRETPEGAEAKPC (cysteine pairing not given here) [Peptide 505]
% cell survival (100 μg/ml peptide, 30 min pre-incubation, then TNF-α 16 h, TNF concentration not printed (table 1)): 62.7 ± 4% and 32.5 ± 3%

CRIAVSYQTKVC (cysteine pairing not given here) [Peptide 557]
% cell survival [1]: 70 ± 3% | % cell survival [2]: 65 ± 4%

CPETPEGAEAKPC (cysteine pairing not given here) [Peptide 506]
% cell survival [4]: 68% | % cell survival [5]: 88.1%

CEGAEC (cysteine pairing not given here) [Peptide 561]
% cell survival [1]: 92 ± 20% | % cell survival [2]: 90 ± 10%

Pen-Thr-Pro-Glu-Gly-Ala-Glu-Ala-Pen ([Pen]TPEGAEA[Pen]; cysteine pairing not given here) [Peptide 562]
% cell survival [6]: 25.2 ± 7% | % cell survival [7]: 33.1 ± 7%

CARDNQAC (cysteine pairing not given here) [Peptide 509]
% cell survival (2.5 μg/ml peptide, TNF 25 ng/ml, 16 h): 21 ± 5% | % cell survival [3]: 28.4%
